Data set [1] relates to C57B16/J male mice. Kind of data set: Dose-response of APAP toxicity (LD60) in mice. The class given is in vivo. On the procedure:
In prior experiments in the laboratory, the LD60, of APAP was determined to be about 600 mgs/kg. The molecular weight of APAP is 151; therefore, the LD60, was about 4 mMol/Kg.

For data set [2] the following is noted: cited from earlier work.
The conditions of data set [3]: cited from earlier work. This is another data set of the same source.
For data set [4], the system named is C57B16/J male mice. As to conditions: APAP 4 mMol/kg (600 mg/kg) IP plus 0.2 ml physiological saline; three of eight animals.
Data set [5] concerns UDP-glucose dehydrogenase. As to conditions: UDP-glucose dehydrogenase reaction; cited from earlier work.

For `CC(=O)Nc1ccc(O)cc1` [APAP, N-acetyl-p-aminophenol], the LD60 result in data set [1] (converted with molecular weight 151) is given as “about 4 mMol/Kg”; in data set [1] (prior experiments in the laboratory), “about 600 mgs/kg”. The “median half-life after an overdose” value in data set [2] (112 patients, overdose) is 5.4 h. Further, the “time of maximal blood concentrations after ingestion” value in data set [2] (human, oral) was 20 to 80 min. Moreover, the “experimental half-life (t0.5 β)” value in data set [2] (human, single oral dose of 1-3 gms) is 1.75 to 2.67 h. Also, the volume of distribution entry in data set [2] (human) was “approximately 0.95 L/Kg”. In addition, the “share of a therapeutic dose biotransformed in the liver” value in data set [2] (therapeutic dose) is 95%. Also, in data set [2] (toxic dose, first 24 hours), the “share of the toxic dose excreted in the first 24 hours” value is “over 90%”. The “share of circulating acetaminophen undergoing Phase II glucuronide conjugation” value in data set [3] (adult, normal (non-saturated) conditions) was “approximately 55%”. Also, the “share of circulating acetaminophen undergoing Phase II sulfonate conjugation” value in data set [3] (adult) was “approximately 30%”. Also, the “share of circulating acetaminophen undergoing Phase I metabolism by cytochrome P-450 enzymes” value in data set [3] (normal conditions) is “Five”. Further, the “survival at 24 hours, APAP/saline (control group)” value in data set [4] was determined as 37.5%.

The term Km denotes the concentration of substrate that gives half-maximal velocity. `NC(=O)c1ccc[n+]([C@@H]2O[C@H](COP(=O)([O-])OP(=O)(O)OC[C@H]3O[C@@H](n4cnc5c(N)ncnc54)[C@H](O)[C@@H]3O)[C@@H](O)[C@H]2O)c1` [NAD^+, nicotinamide adenine dinucleotide]: in data set [5], the Km was 424 µM.

The values are drawn from US20080188439A1, “Directed metabolism of compounds by glucuronidation and sulfonation donors to decrease toxicity” (priority 2006, published 2008).
